Experiment [1] concerns dextran sodium sulfate (DSS)-induced IBD. The experiment in a line: Acute prophylactic model of DSS-induced IBD. Type of experiment: in vivo, mouse. As to conditions: oral 10 mg/kg/day for 10 days, prophylactic. The text has this: Acute and chronic models of dextran sodium sulfate (DSS)-induced IBD in mice were used to explore efficacy of GSNORi against this disease. Acute and chronic DSS-induced IBD are widely used and well characterized models that induce pathological changes in the colon similar to those observed in the human disease. In these models and in human disease, epithelial cells within the crypts of the colon are disrupted, leading to dysfunction of the epithelial barrier and the ensuing tissue inflammation, edema, and ulceration. GSNORi therapy may benefit IBD by restoring s-nitrosoglutathione (GSNO) levels, and thus prevent or reverse the epithelial barrier dysfunction. Experimental IBD was induced by administration of DSS in the drinking water of male C57Bl/6 mice (N=8 to 10 mice per group) for 6 consecutive days. GSNORi was dosed orally at doses of 0.1 to 10 mg/kg/day for 10 days starting two days prior to and continuing two days post DSS exposure. […] Levels of circulating cytokines involved in inflammatory pathways were also assessed. The effect of GSNORi was compared to vehicle treated controls. […] Naïve mice (N=5) were also assessed as a normal tissue control.

In experiment [2] the target is T1, S-nitrosoglutathione reductase (GSNOR) (Homo sapiens, UniProt P11766).
T1 construct: made in house; host or cells: E. coli
T1 sequence (P11766 whole entry): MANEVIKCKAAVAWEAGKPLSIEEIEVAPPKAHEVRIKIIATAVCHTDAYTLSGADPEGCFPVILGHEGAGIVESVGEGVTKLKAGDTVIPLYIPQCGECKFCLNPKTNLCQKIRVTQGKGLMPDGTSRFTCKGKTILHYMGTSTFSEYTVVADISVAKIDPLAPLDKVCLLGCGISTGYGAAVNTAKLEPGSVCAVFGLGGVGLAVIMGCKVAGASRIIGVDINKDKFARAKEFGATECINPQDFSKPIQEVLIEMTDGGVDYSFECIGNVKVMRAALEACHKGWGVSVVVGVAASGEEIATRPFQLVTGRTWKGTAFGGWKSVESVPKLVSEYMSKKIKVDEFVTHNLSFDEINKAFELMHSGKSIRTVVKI
The experiment in a line: GSNOR assay (inhibition of GSNOR activity, NADH absorbance at 340 nm). Type of experiment: biochemical. Summed up:
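Recombinant GSNOR purified from E. coli, tag removed. Final conditions: 100 mM NaPO4 pH 7.4, 0.240 mM GSNO, 0.300 mM NADH, 0.5 μg/mL enzyme, 1% DMSO; NADH loss followed as 340 nm absorbance change over 3 min at 25 °C. Compounds 100–0.003 μM, triplicate; IC50 by curve analysis.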

Experiment [3] deals with cigarette smoke-induced COPD. As to the kind of experiment: Subchronic (11 day) cigarette smoke exposure COPD model. Type of experiment: in vivo, mouse. On the procedure: Infiltration of inflammatory cells into the bronchoalveolar lavage fluid (BALF) and BALF levels of chemokines involved in inflammation and tissue turnover/repair were measured to assess the influences of GSNOR inhibitors on some of the early events associated with the initiation and progression of COPD. […] In animal models, changes in lung pathology are only evident after extended (several months) duration of exposure to cigarette smoke, thus making chronic models prohibitive as effective screening tools. […] The key roles of inflammation in the initiation and progression of COPD, make these short duration models relevant for initial tests of efficacy of novel therapeutics. Female C57Bl/6 mice (N=10 per group) were exposed to cigarette smoke generated from Marlboro 100 cigarettes without filters. Exposure times were 25 min. on study day 1, 35 min. on study day 2, and 45 min. on study days 3 to 11. GSNOR inhibitors were administered one hour prior to smoke exposure on each day. GSNOR inhibitors were dosed orally at 1 to 10 mg/kg/day for 11 days. […] The effect of GSNOR inhibitors were compared to vehicle treated controls and expressed as percent inhibition of the cigarette smoke induced increases in BALF cell numbers. Roflumilast was used as the positive control for the study and was dosed at 5 mg/kg/day. A group of naïve mice (N=10) was exposed to air and dosed with vehicle as a negative control for the study.

Setting [4] is: GSNOR inhibitor activity, Tables 1-6, read-out: IC50 range.
Where [5] appears, read: Table 8, GSNOR inhibition, IC50 range class a/b/c, read-out: IC50.
Where [6] appears, read: Table 7, GSNOR inhibition, IC50 range class a/b/c, read-out: IC50.

Structures are written as SMILES. Where two headings read alike, the source gives them in different places. Some results are limits rather than exact numbers.

In general, IC50 refers to the concentration that inhibits the measured activity by half.

Turning to `O=C(O)c1ccc(-c2ccc3cc(O)ccc3n2)c(Cl)c1` [Compound I-8, 3-chloro-4-(6-hydroxyquinolin-2-yl)benzoic acid], in experiment [1], the “decrease of percent of mice with severe colon injury scores via endoscopy” value is given as 44 % of vehicle control and the “decrease of percent of mice with severe colon injury scores via histopathology” value is given as 26 % of vehicle control. Moreover, the IC50 in experiment [2] (setting [4]) was less than 100 nM. Moreover, the “dose response of effect” value in experiment [3] (subchronic 11 day model, 1, 5, or 10 mg/kg/day) is “no dose response of effect”. The “effects compared with roflumilast” value in experiment [3] (subchronic 11 day model, roflumilast 5 mg/kg/day) is on record as “comparable to those of roflumilast”.
Take `O=C(O)c1ccc(CC(=O)c2ccc(O)c(F)c2F)c(F)c1` [VI-3, 4-(2-(2,3-difluoro-4-hydroxyphenyl)-2-oxoethyl)-3-fluorobenzoic acid]: the IC50 in experiment [2] (setting [4]) was less than 100 nM.
For `O=C1c2ccc(O)cc2CCN1[C@H]1CC[C@H](C(=O)O)CC1` [VIII-16, (trans)-4-(6-hydroxy-1-oxo-3,4-dihydroisoquinolin-2(1H)-yl)cyclohexanecarboxylic acid], in experiment [2] (setting [5]), the IC50 was in the range of 1000 to 10000 nM.
As for `O=c1c(Oc2ccc([N+](=O)[O-])c(O)c2)c(C(F)(F)F)oc2cc(O)ccc12` [Compound V-16, 7-hydroxy-3-(3-hydroxy-4-nitrophenoxy)-2-(trifluoromethyl)-4H-chromen-4-one], in experiment [2] (setting [4]), the IC50 was less than 100 nM.
Regarding `Cc1c(-c2ccc(C(=O)O)cc2)ncc2cc(O)ccc12` [II-25, 4-(7-hydroxy-4-methylisoquinolin-3-yl)benzoic acid], in experiment [2] (setting [4]), the IC50 was in the range of 100 to 1000 nM.
On to `N#Cc1c(-c2ccc(C(=O)O)cc2F)ccc2cc(O)ccc12` [III-29], for which, in experiment [2] (setting [4]), the IC50 was less than 100 nM.
On the same count and under the same terms, the value for `CN(C)c1cc(C(=O)O)ccc1-c1ccc2cc(O)ccc2c1` [III-5] was less than 100 nM.
Regarding `CCCCCCn1c(-c2ccc(O)cc2)ccc1-c1ccc(C(=O)O)cc1` [VII-34, 4-(1-hexyl-5-(4-hydroxyphenyl)-1H-pyrrol-2-yl)benzoic acid], the IC50 in experiment [2] (setting [6]) was less than 100 nM.
Still for that read-out and setting: the value for `CCCCn1c(-c2ccc(O)cc2)ccc1-c1ccc(C(=O)O)s1` [VII-26, 5-(1-butyl-5-(4-hydroxyphenyl)-1H-pyrrol-2-yl)thiophene-2-carboxylic acid] was 100 to 1000 nM.
For the compound `O=C(O)c1ccc(CC(=O)c2ccc(O)cc2F)c(F)c1` [VI-2, 3-fluoro-4-(2-(2-fluoro-4-hydroxyphenyl)-2-oxoethyl)benzoic acid], the IC50 in experiment [2] (setting [4]) is less than 100 nM; in experiment [2] (GSNOR, read-out: IC50), less than 100 nM.
`O=C(O)c1ccc(-c2cc(-c3ccc(O)cc3)cs2)s1` [VII-19, 4′-(4-hydroxyphenyl)-[2,2′-bithiophene]-5-carboxylic acid]: the IC50 in experiment [2] (setting [6]) was 100 to 1000 nM.
Still for that read-out and setting: the value for `O=C(O)c1cccc(-c2csc(-c3ccc(O)c(F)c3)n2)c1` [VII-5, 3-(2-(3-fluoro-4-hydroxyphenyl)thiazol-4-yl)benzoic acid] was 100 to 1000 nM.
For `O=c1nc(-c2ccc(-c3ccc4cc(O)ccc4n3)cc2)o[nH]1` [Compound I-34], the IC50 in experiment [2] (setting [4]) lay in the range of 100 to 1000 nM.
For `Oc1ccc2nc(-c3ccc(-c4nnn[nH]4)cc3)sc2c1` [VIII-5, 2-(4-(1H-tetrazol-5-yl)phenyl)benzo[d]thiazol-6-ol], the IC50 in experiment [2] (setting [5]) was 100 to 1000 nM.
Consider `O=C(O)c1ccc(CC(=O)c2c(F)cc(O)cc2F)c(F)c1` [VI-10, 4-(2-(2,6-difluoro-4-hydroxyphenyl)-2-oxoethyl)-3-fluorobenzoic acid], for which the IC50 in experiment [2] (setting [4]) was 100 to 1000 nM.
On to `CC(C)Cn1c(-c2ccc(O)cc2)ccc1-c1ccc(C(=O)O)cc1` [VII-29, 4-(5-(4-hydroxyphenyl)-1-isobutyl-1H-pyrrol-2-yl)benzoic acid], for which the IC50 in experiment [2] (setting [6]) is less than 100 nM.
On to `O=c1c(Oc2ccc(-c3nnn[nH]3)cc2)c(C(F)(F)F)oc2cc(O)ccc12` [Compound V-6, 3-(4-(1H-tetrazol-5-yl)phenoxy)-7-hydroxy-2-(trifluoromethyl)-4H-chromen-4-one], for which the IC50 in experiment [2] (setting [4]) was in the range of 1000 to 10000 nM.
As for `O=C(O)c1ccc(-c2csc(-c3ccc(O)c(F)c3)n2)s1` [VII-3, 5-(2-(3-fluoro-4-hydroxyphenyl)thiazol-4-yl)thiophene-2-carboxylic acid], the IC50 in experiment [2] (setting [6]) is less than 100 nM.
On to `O=[N+]([O-])c1cc(-c2ccc3cc(O)ccc3n2)ccc1O` [Compound I-61, 2-(4-hydroxy-3-nitrophenyl)quinolin-6-ol], for which the IC50 in experiment [2] (setting [4]) is 1000 to 10000 nM.
The same measure, in the same setting: the value for `Oc1ccc2nc(-c3ccc(-c4nn[nH]n4)cc3)cc(Cl)c2c1` [Compound I-11] was less than 100 nM; that for `O=C(O)c1ccc(-c2ccc3cc(O)ccc3n2)c(C(F)(F)F)c1` [Compound I-30] was less than 100 nM.
`O=C(O)c1ccc(-c2ccc3cc(O)ccc3c2F)cc1` [III-26, 4-(1-fluoro-6-hydroxynaphthalen-2-yl)benzoic acid]: the half-maximal inhibitory concentration (IC50) in experiment [2] (setting [4]) is less than 100 nM.
The same measure, in the same setting: the value for `O=C(O)c1ccc(-c2c(C(F)(F)F)oc3cc(O)ccc3c2=O)cc1Cl` [IV-18] was less than 100 nM; that for `O=C(O)c1ccc(COc2ccc(O)c(F)c2F)c(F)c1` [VI-21, 4-((2,3-difluoro-4-hydroxyphenoxy)methyl)-3-fluorobenzoic acid] was less than 100 nM.

The values above are taken from patent US20140094465A1, “Compounds as S-Nitrosoglutathione Reductase Inhibitors” (N30 PHARMACEUTICALS, INC., priority 2011, published 2014).
